Consider one compound from US8728797B2, “Yeast membrane protein expression system and its application in drug screening” (priority 2001, dated 2014).

The experiment deals with AD-PDR5 (Pdr5p). Put plainly: Disk diffusion assay, AD-PDR5. The class given is cell-based, S. cerevisiae. Particulars: AD-pABC as negative control, 30° C., 48 h. As for the experimental part:
The cells were spread on CSM-agar plates and exposed to the drugs or chemicals applied to filter disks and incubated at 30° C. for 48 h. The amounts of individual drugs are given in the Materials and Methods section of Example 3. Rhodamine 6G and rhodamine 123 were dissolved in ethanol and the other antifungals were dissolved in DMSO.
Drug susceptibility was measured using disk assays on CSM-URA plates (containing 1.5% w/v agar). Yeast cells (200 μl ml of 5×10^6 cells/ml) were spread on the plates. 10 μl of drug solution or solvent control were spotted onto sterile Whatman paper disks on the pre-spread plates. The following amounts (nmoles) of drugs were applied to individual disks: fluconazole, 633 (Pfizer Ltd., Sandwich, Kent, United Kingdom); itraconazole, 0.23 (Janssen); miconazole, 0.42 (Janssen); cycloheximide, 0.71 (Sigma); rhodamine 6G, 100 (Sigma, Penrose, Auckland, N. Z.); rhodamine 123, 125 (Sigma); cerulenin 4.5 (Sigma); 5-flucytosine 100 (Sigma); amphotericin B, 97 (E. R. Squibb & Sons, Princeton, N.J.); nystatin 65 (Sigma). Agar plates were incubated at 30° C. for 48 h or until clear growth inhibition zones were visible.

Molecules are shown by their SMILES.

Regarding `OC(Cn1cncn1)(Cn1cncn1)c1ccc(F)cc1F` [fluconazole], the “resistance/sensitivity in disk diffusion assay” value is “resistances”.
